Measurements: article PMC10839085, “Screening and evaluation of metabolites binding PRAS40 from Erxian decoction used to treat spinal cord injury” (Frontiers in Pharmacology, 2024)
Read-outs that look alike come from different tables or passages of the source.

How the values were obtained:
PRAS40 [1] = target: T1, PRAS40 (Homo sapiens, UniProt Q96B36); experiment: ligand fishing from Erxian decoction with immobilized PRAS40, LC-MS identification; assay type: binding; conditions: PBS-Tween, pH 7.4, eluted from Ni-NTA beads, identified from extract by MS only
T1 construct: gene AKT1S1; His-tagged, purchased from Genscript (Nanjing); UniProt Q96B36 (human) given only for the docking receptor

PRAS40 [2] = target: T1, PRAS40; experiment: isothermal titration calorimetry; assay type: binding
Text: isothermal titration calorimetry on PRAS40

[3] = read-out: Ka (M^-1) (converted)

| Kd (PRAS40 [2]; [3]) [µM] | Kd (PRAS40 [2]; read-out: Kd) [µM] | SMILES | ligand fishing from Erxian decoction with immobilized PRAS40, LC-MS identificati (PRAS40 [1]) | ligand fishing from Erxian decoction with immobilized PRAS40, LC-MS identificati (PRAS40 [1]; named as PAINS by the paper) |
| --- | --- | --- | --- | --- |
| – | – | O=[N+]([O-])c1ccc(O)cc1 [4-nitrophenol] | The immobilized PRAS40 isolated indole, 4-nitrophenol, terephthalic acid | – |
| 2.62 | 2.62 | c1ccc2[nH]ccc2c1 [indole] | – | – |
| 0.352 | 0.353 | COc1cc2c(cc1OC)-c1cc3ccc(OC)c(OC)c3c[n+]1CC2 [palmatine] | – | – |
| – | – | COc1cc(/C=C/C=O)cc(OC)c1O [sinapinaldehyde] | – | palmatine, sinapinaldehyde, and 3-chloroaniline as the potential ligands binding to PRAS40 |
| – | – | O=C(O)c1ccc(C(=O)O)cc1 [terephthalic acid] | The immobilized PRAS40 isolated indole, 4-nitrophenol, terephthalic acid | – |
